Legend:
human TLR8 = biological target: T1, human TLR8 (Homo sapiens, UniProt Q9NR97); test: Inhibition of R-848-mediated NF-κB-luciferase activation in hTLR8-LUC-293 cells; assay type: cell-based; details: for inhibitory for TLR8: general statement 'found according to the present invention', conditions not given
T1 construct: expressed in transfected cells
T1 sequence (Q9NR97 27-1041): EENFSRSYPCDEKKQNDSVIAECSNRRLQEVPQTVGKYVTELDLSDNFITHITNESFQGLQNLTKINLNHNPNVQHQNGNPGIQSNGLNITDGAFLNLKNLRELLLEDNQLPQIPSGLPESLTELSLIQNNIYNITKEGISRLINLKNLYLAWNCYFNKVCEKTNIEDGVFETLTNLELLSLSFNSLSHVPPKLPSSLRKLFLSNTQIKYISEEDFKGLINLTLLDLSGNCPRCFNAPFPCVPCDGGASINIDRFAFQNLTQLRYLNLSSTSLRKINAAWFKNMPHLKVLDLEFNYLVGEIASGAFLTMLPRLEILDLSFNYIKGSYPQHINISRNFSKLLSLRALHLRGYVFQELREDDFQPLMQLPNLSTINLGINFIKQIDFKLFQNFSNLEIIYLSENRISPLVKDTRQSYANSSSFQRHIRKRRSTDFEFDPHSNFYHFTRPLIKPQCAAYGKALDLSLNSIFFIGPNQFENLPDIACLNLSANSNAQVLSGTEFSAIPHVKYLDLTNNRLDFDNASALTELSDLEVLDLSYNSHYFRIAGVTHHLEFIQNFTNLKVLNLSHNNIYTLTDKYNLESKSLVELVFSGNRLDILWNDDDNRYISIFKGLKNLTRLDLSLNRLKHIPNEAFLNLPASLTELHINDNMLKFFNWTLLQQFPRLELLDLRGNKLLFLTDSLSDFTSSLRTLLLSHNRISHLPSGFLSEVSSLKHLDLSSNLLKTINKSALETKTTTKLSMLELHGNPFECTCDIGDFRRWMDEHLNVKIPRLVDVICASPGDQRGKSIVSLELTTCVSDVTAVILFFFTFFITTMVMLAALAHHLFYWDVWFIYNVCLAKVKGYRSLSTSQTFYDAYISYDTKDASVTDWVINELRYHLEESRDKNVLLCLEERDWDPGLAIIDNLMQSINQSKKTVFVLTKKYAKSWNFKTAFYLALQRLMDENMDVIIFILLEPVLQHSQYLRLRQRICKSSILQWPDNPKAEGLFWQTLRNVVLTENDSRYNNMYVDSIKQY
Method: The previous examples describe the ability of certain inhibitory ODN to inhibit activation of signal transduction mediated by human Toll-like receptor 9 (hTLR9). […] The assay system involved stimulating hTLR8-LUC-293 cells with the TLR8 ligand, R-848 (Resiquimod; Jurk M et al. (2002) Nat Immunol 3:499) in the presence and absence of ODN and comparing the induction of luciferase activity in the absence of ODN to luciferase activity in the presence of ODN.
Cells were assayed for luciferase activity 16 h later. Results were calculated as fold induction above medium background.
Luciferase activity was assayed after 16 h.
hTLR8-LUC-293 cells were incubated with 50 μM R-848 in the presence of increasing concentrations of the following ODN: ODN 2088, D13GT (whererin D is dSpacer), GTN13, N6GTN7, random 15-mer N15, N13GT, and the dinucleotide GT. Luciferase activity was assayed after 16 h. Luciferase activity of R-848 without any ODN was set to 100% (without correction for medium background, i.e. background activity of medium remained at approx. 17%).
Luciferase activity was assayed after 16 h. Luciferase activity of R-848 without any ODN was set to 100% (without correction for medium background, i.e., background activity of medium remained at approx. 17%).
In yet a further set of experiments hTLR8-LUC-293 cells were incubated with 50 μM R-848 in the presence of increasing amounts of different dinucleotides (GT, ODN 603; TG, ODN 688; GG, ODN 689; GU, ODN 690; UG, ODN 691; AT, ODN 692; and TT, ODN 693). Luciferase was assayed after 16 h. Luciferase activity of R-848 without any ODN was set to 100% and remaining R-848-mediated NF-κB activation in the presence of dinucleotides or ODN 2088 was calculated. Medium background was 17% in this set of experiments.
hTLR-LUC-293 cells (expressing the respective humanTLR7, TLR8, or TLR9) were incubated with constant amounts of TLR-agonist (for hTLR7: 2 μM R-848, for hTLR8: 50 μM R-848, and for hTLR9: 0.156 μM CpG ODN 2006) and increasing amounts of TLR-antagonist. […] To compare data for different TLRs, percent remaining activity of agonist was plotted against the log of molar ratio of antagonist to agonist (e.g., for hTLR8: 50 μM R-848 and 5 μM ODN, the plotted ratio is 10^−1). Used ODN concentrations were: for hTLR7 and hTLR8, 5 μM, 0.5 μM, 0.05 μM, and 0.005 μM, and for hTLR9, 2.5 μM, 0.156 μM, 0.0098 μM and 0.00061 μM.

human TLR9 = biological target: T2, human TLR9 (Homo sapiens, UniProt Q9NR96); test: Inhibition of CpG ODN 2006-mediated NF-κB-luciferase activation in hTLR9-LUC-293 cells; details: for Percent 2006 Activity: equimolar 0.156 μM CpG ODN 2006 and inhibitory ODN; for inhibitory for TLR9: general statement 'found according to the present invention', conditions not given
T2 sequence (Q9NR96 26-1032): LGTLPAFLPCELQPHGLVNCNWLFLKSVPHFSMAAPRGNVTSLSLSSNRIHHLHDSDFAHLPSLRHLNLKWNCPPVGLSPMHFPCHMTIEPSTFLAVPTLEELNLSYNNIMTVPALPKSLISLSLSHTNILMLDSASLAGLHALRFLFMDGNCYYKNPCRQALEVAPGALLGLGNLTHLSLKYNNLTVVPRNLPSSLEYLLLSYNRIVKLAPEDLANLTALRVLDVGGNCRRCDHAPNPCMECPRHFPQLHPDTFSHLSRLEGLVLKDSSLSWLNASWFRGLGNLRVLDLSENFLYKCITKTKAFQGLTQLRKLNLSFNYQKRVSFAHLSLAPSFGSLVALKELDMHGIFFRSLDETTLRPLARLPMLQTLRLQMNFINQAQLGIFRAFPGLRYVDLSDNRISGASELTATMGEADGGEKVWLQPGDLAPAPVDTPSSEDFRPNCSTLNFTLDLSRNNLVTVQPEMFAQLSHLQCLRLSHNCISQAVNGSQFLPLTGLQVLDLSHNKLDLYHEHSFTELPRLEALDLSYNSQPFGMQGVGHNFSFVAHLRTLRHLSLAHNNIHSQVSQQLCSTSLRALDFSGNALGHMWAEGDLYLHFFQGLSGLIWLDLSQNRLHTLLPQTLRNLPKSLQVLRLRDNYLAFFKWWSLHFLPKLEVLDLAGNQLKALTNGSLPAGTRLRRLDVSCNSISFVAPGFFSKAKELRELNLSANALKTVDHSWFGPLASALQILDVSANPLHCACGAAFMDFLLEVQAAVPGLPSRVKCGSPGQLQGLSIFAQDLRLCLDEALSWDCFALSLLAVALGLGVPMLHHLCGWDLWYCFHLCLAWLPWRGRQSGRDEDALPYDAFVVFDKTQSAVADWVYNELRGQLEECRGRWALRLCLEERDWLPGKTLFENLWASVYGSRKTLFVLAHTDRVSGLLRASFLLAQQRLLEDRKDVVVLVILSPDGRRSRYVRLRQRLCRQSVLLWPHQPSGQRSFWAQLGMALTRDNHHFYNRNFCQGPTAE

human PBMC = test: Inhibition of CpG ODN 2395-induced IFN-α secretion by human PBMC; assay type: cell-based; details: FIG. 9; 0.5 μM CpG ODN 2395, increasing ODN, 24 h
Method: In this set of experiments human PBMC were isolated from human blood and incubated in the presence of 0.5 μM CpG ODN 2395 ([…]; SEQ ID NO:30) and increasing concentrations of inhibitory ODN. CpG ODN 2395 induces high amounts of IFN-α in human PBMC through TLR9-mediated signaling. The secreted amount of IFN-α induced by CpG ODN 2395 after 24 h was set to 100%.

[1] = Table 3 (nucleotides flanking 5′ CC, truncations)
[2] = Table 2 (5′ CC replaced by other dinucleotides)

Sequence | inhibitory for TLR8 (human TLR8) | Percent 2006 Activity (human TLR9; [1]) [%] | inhibitory for TLR9 (human TLR9) | other results
ACCTGGCGGGGAAGT (DNA, backbone and methylation of C not given here) [ODN 941] | inhibitory | 11 | inhibitory | –
CCCTGGCGGGGAAGT (DNA, backbone and methylation of C not given here) [ODN 942] | inhibitory | 8 | inhibitory | –
CCTCAAGCTTGAGGGG [SEQ ID NO:13] | not for TLR8 | – | inhibitory | –
CCTTGTTGGG (DNA, backbone and methylation of C not given here) [ODN 223] | – | – | – | inhibition of IFN-α production in human PBMC, in words (human PBMC): inhibited
CTGGCGGGGAAGT (DNA, backbone and methylation of C not given here) [ODN 962] | – | 122 | – | inhibition of hTLR8 (R-848 activity), in words (human TLR8; 50 μM R-848, increasing ODN (up to 5 μM), 16 h): specific inhibition
GCCTGGCGGGGAAGT (DNA, backbone and methylation of C not given here) [ODN 940] | inhibitory | 13 | inhibitory | –
NNNNNNNNNNNNNGT [ODN 467] | – | – | – | inhibition of IFN-α production in human PBMC, in words (human PBMC): not
TCCCGGCGGGGAAGT (DNA, backbone and methylation of C not given here) [ODN 155] | inhibitory | 11 | inhibitory | –
TCCGGGCGGGGAAGT (DNA, backbone and methylation of C not given here) [ODN 156] | inhibitory | 10 | inhibitory | –
TCCTAGCGGGGAAGT (DNA, backbone and methylation of C not given here) [SEQ ID NO:10] | inhibitory | – | inhibitory | –
TCCTAGCGGGGGCGTCCTAT (chemistry not given here) [SEQ ID NO:12] | not for TLR8 | – | inhibitory | –
TCCTGGAGGGGAAGT (DNA, backbone and methylation of C not given here) [ODN 2114] | inhibitory | – | inhibitory | –
TCCTGTGTGTGTGTGTGTCGGGGAAGT (DNA, backbone and methylation of C not given here) [ODN 497] | inhibitory | – | inhibitory | Percent 2006 Activity (human TLR9; Table 1 (length b / Spacer 18 variants)): 28%
TGATGGCGGGGAAGT (listed as DNA, chemistry not given here) [ODN 444] | inhibitory | – | – | Percent 2006 Activity (human TLR9; [2]): 96%
TGCTGGCGGGGAAGT (listed as DNA, chemistry not given here) [ODN 443] | inhibitory | – | – | Percent 2006 Activity (human TLR9; [2]): 91%
TGTTGGCGGGGAAGT (listed as DNA, chemistry not given here) [ODN 445] | inhibitory | – | – | Percent 2006 Activity (human TLR9; [2]): 97%
